From patent publication US20200399392A1, “INHIBITORS OF PLA2-G1B COFACTORS FOR TREATING CANCER” (priority 2018, published 2020)

Tested on: gC1qR KO Jurkat E6.1 T cells
Experiment: PLA2-GIB enzymatic assay on [3H] arachidonic acid labelled gC1qR KO Jurkat E6.1 T cells
Type: cell-based, human
Conditions: gC1qR KO cells (1D5 or 2G9), pretreatment 21 h, FIG. 13
Excerpt: Generation of gC1qR KO Jurkat E6.1 T cells—The global strategy for the development of Jurkat cells deprived of C1QBP is based on the design of a targeting vector permitting bi-allelic inactivation of C1QBP gene via homologous recombination. Human C1QBP homologous regions isogenic with the Jurkat E6.1 T cell line (ECACC 88042803) has been used. The targeting vector has been synthetized by Genewiz and cloned into the pUC57-Amp vector. […] The NeoR cassette was cloned using BamHI/NotI restriction sites. The targeting vector has been verified by DNA restriction digestion cut with selected restriction enzymes (APaL1, Drd1, Pvu1, Pvu2, BamH1/NotI, Not1/NcoI, NEB) and target region sequencing. The DNA primers corresponding to C1QBP sgRNA (1828-Crispr_1A: CACC-[…] and 1828-Crispr_1B: AAAC-[…]) were hybridized and cloned (Quick Ligase-New England Biolabs, NEB) into the pX330 plasmid (Addgene, 42230; Feng Zhang, MIT) using BbsI restriction site (NEB).
The Jurkat cells (5×10^6) were resuspended in 100 μL of Opti-MEM and 7 μg of CRISPR/Cas9 plasmid and 2.5 μg of targeting vector were added. The cells were electroporated with a Nepa21 electroporator. After cell selection in G418 selective medium, the Jurkat cell clones were prescreened by PCR genotyping. Independent cell clones knocked-out for C1QBP gene were amplified and verified by PCR genotyping and target region sequencing. […]

Q: How did the “PLA2-GIB activity vs scrambled PEP3” value turn out when “NH2-PWNASWSNKSLDDIW—COOH (H-PWNASWSNKSLDDIW-OH) [PEP3]” was run?
A: The value was “not”.
